The values that follow come from article PMC9961652 (International Journal of Molecular Sciences, 2023).

Like-named read-outs stand apart in the source and are kept apart here.

Experiment [1] deals with washed human platelets. The experiment can be described thus: Wash-out reversibility of inhibition of collagen-induced platelet aggregation. Format: cell-based. Here is the method:
The reversible inhibition of Rhosin in collagen-induced platelet aggregation was assessed with similar wash-out experiments, and this reversible nature of Rhosin makes it a valuable antiplatelet drug candidate (Supporting Information Figure S4A,B). After confirming the structures of the above six active analogs, similar wash-out experiments were performed to compare the reversible function of the active analogs with Rhosin reversibility.

Experiment [2] concerns washed human platelets. As to the kind of experiment: Collagen-induced platelet aggregation, light transmission aggregometry (Born method). Format: cell-based. Particulars: for IC50: Homo sapiens, collagen-induced platelet aggregation, compounds without IC50 determination estimated from percent inhibition at 20 µM, read-out: IC50 (SAR table); for IC50 / activity at 20 µM: Platelet; for activity at 20 µM: compound 20 µM, washed human platelets, means ± SDs of three experiments, 100% = agonist alone. How it is done:
Light transmission aggregometry, i.e., the Born method, was used to determine in vitro antiplatelet aggregation activity using collagen as the agonist for platelet aggregation. Collagen was selected as the agonist, since it is the most thrombogenic component of the subendothelial layer. Collagen also serves as a substrate for platelet adhesion and as an inducer of platelet activation.
All experiments using human blood from healthy volunteers were performed according to the protocols approved by the Institutional Review Board at Cincinnati Children’s Hospital Medical Center, Cincinnati, Ohio. Each volunteer was required to sign an informed consent form approved by the IRB. Procedures for drawing human blood, isolating platelet-rich plasma (PRP), and preparing washed platelet suspensions were the same as those previously reported. […] PRP was obtained by means of the centrifugation of blood at 1400 rpm for 15 min at room temperature. PRP was centrifuged at 4000 rpm for 10 min at room temperature, and the platelet pellet was resuspended in HEPES Tyrode’s solution (pH 7.4) without calcium. Platelets were counted using Hemavet 950FS (Drew Scientific, Oxford, CT, USA), and the count was adjusted to 2.5 × 10^8/mL for aggregation studies.
The in vitro antiplatelet activity of the compounds was assayed on washed human platelets using light transmission aggregometry. Platelet aggregation was performed using a 4-channel Lumi-aggregometer (Chronolog, PA, USA) at 37 °C and stirring speed of 900 rpm. A volume of 250 µL of washed human platelets (2.5 × 10^8/mL) was pre-warmed to 37 °C along with the compounds or DMSO (0.1%) for 2 min before the addition of agonists such as collagen, AA, U46619 (a stable synthetic analog of thromboxane A2), ADP, and thrombin. For ATP secretion, platelets were pre-incubated with a luciferin/luciferase kit (Chrono-lume®) for 30 s at 37 °C before the addition of the agonist. The reactions were allowed to proceed for at least 4 min, and the results of platelet aggregation and ATP secretion were determined using Aggrolink software. Platelet aggregation was expressed as the maximum change in the light transmission, where the 100% value corresponded to treatment with the agonist alone. Compounds were evaluated in triplicate at nine compound concentrations ranging from 50 µM to 1 µM.

In another experiment the test system is RhoA. The experiment can be described thus: RhoA-GTP formation, GST-Rhotekin effector pull-down assay in collagen-stimulated platelets. It is filed as cell-based, human. The following applies: 20 µM, 2 min pre-incubation; collagen 1 µg/mL for 4 min. Here is the method: Next, the ability of the six compounds to suppress RhoA activity in platelets was assessed by subjecting them to a GST (Glutathione-S-transferase)-Rhotekin effector pull-down assay. The compounds were incubated with washed human platelets for 2 min before being stimulated with 1 µg/mL collagen. The analogs inhibited the activation of RhoA at the 20 µM concentration (Figure 2A,B). […] After confirming that these analogs could prevent RhoA activation and the phosphorylation of the MLC, their ability to disrupt complex-formation between RhoA and LARG was tested. […] These findings indicate that the active analogs inhibit RhoA activation by disrupting the binding between RhoA and its GEF.
(A,B) Washed human platelets were incubated with collagen (1 µg/mL) for 4 min, and the levels of RhoA-GTP formation were quantified with a GST-Rhotekin effector pull-down assay. The platelets were pre-incubated with 20 µM UC-177618, UC-177619, UC-177628, UC-177629, […], or […] for 2 min before being stimulated with collagen. The addition of ice-cold lysis buffer terminated the reaction. […] Relative amounts of the GTP-bound form of RhoA were quantified with densitometry measurements of total RhoA (T-RhoA) and normalized to untreated platelets. (C,D) The addition of 20 µM of active Rhosin-related compounds to washed human platelets 2 min before stimulation with collagen blocked the phosphorylation of the myosin light chain (p-MLC). The reactions were terminated after 4 min by adding 4x Laemmli sample buffer. The samples were processed for Western blotting and probed for MLC and p-MLC, and phosphorylation was quantified by measuring the densitometry of total MLC (T-MLC). The differences between DMSO- and Rhosin-related compounds were analyzed with t-test, and the results are shown as means ± SDs of three independent experiments. (* p < 0.05, ** p < 0.01, *** p < 0.001, and **** p < 0.0001).
The relative levels of RhoA-GTP in washed human platelets were quantified with effector domains GST-Rhotekin pull-down assays as previously reported. A volume of 250 µL of washed human platelets (2.5 × 10^8/mL) was pre-warmed to 37 °C along with the compounds or DMSO (0.1%) for 2 min before being stimulated with collagen (1 µg/mL). The reactions were terminated 4 min after collagen stimulation by adding ice-cold lysis buffer (20 mM Tris·HCl (pH 7.6), 100 mM NaCl, 1% Triton X-100, 0.2% Sodium Deoxycholate, 10 mM MgCl2, 1 mM dithiothreitol, 1x protease inhibitor cocktail, and 1x phosphatase inhibitor cocktail). The supernatants were collected and subjected to the GST-Rhotekin pull-down assay. The total cell lysates were also blotted in parallel. GTP-bound RhoA was quantitatively detected with Western blotting using an anti-RhoA antibody. The relative amounts of RhoA were quantified with densitometry measurements and normalized to the untreated platelets.

The target in a further experiment is T1, RhoA-LARG interaction (Homo sapiens, UniProt P61586).
T1 construct: 100 ng of purified full-length RhoA
T1 sequence (P61586 whole entry): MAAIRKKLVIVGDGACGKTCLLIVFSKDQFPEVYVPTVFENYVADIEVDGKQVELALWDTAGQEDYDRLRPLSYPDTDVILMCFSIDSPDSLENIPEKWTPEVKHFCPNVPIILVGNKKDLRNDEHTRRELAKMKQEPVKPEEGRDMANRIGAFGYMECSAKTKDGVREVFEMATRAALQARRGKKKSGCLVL
The experiment can be described thus: In vitro complex-formation assay of RhoA with LARG DH-PH domain. Format: binding. Particulars: 20 µM; pull-down assay conditions, 4 °C, 1 h. Here is the method: (A) A complex-formation assay tested the inhibitory effects of 20 µM UC-177618 and UC-177619 on RhoA interaction with the LARG DH-PH domain. […] After incubating the compound-RhoA-LARG mixture at 4 °C for 1 h, the beads associated with RhoA were detected with anti-RhoA Western blotting. (B,C) Top view of the predicted structural contacts of UC-177618 and UC-177619 in the binding pocket around the Trp58 residue of RhoA.
(A) A complex-formation assay tested the inhibitory effects of R-G04 and S-G04 on RhoA interaction with the LARG DH-PH domain. MBP-(His)6-tagged LARG (100 ng) was immobilized on Amylose beads. Binding buffer containing full-length RhoA (100 ng) was pre-incubated with different concentrations of R-G04 (25 µM or 50 µM), and S-G04 (5 µM or 10 µM) was added to the beads. After incubating the compound-RhoA-LARG mixture at 4 °C for 1 h, the beads associated with RhoA were detected with anti-RhoA Western blotting. (B) Top view of the predicted structural contacts of R-G04 and S-G04 in the binding pocket around the Trp58 residue of RhoA.
In total, 100 ng of purified MBP (Maltose-binding protein)-(His)6-tagged LARG DH-PH was immobilized on 20 µL of suspended amylose beads (No. E8021S; New England Biolabs Inc., Ipswich, MA, USA) by incubating them in an orbital shaker at 4 °C for 30 min in binding buffer (20 mM Tris·HCl (pH 7.6), 100 mM NaCl, 0.01% Triton X-100, 5mM EDTA, and 5 mM MgCl2). The compounds were added to the binding buffer containing 100 ng of purified full-length RhoA and pre-incubated at 4 °C for 30 min under constant agitation. The Amylose beads bound to LARG were washed thrice with binding buffer to get rid of unbound LARG, and the pre-incubated compound-RhoA mixture was added to the beads. This LARG-compound-RhoA mixture was incubated in the orbital shaker at 4 °C for 1 h. The beads were washed three times, and the amount of RhoA protein co-precipitated with the MBP-fusion-bound beads was detected with anti-RhoA Western blotting.

[3] abbreviates: read-out: % Platelet Aggregation, Collagen (1 µg/mL).
[4] abbreviates: read-out: % Platelet Aggregation, Collagen (5 µg/mL).

As usually defined, the IC50 is the concentration at which inhibition is half-maximal. On to `O=C(NNc1ccnc2c(C(F)(F)F)cccc12)c1ccc(Cl)c(Cl)c1` [UC-177618], for which the “reversibility of inhibitory effect after wash-out” value in the experiment with washed human platelets [1] was “entirely reversible”. Further, in the experiment with washed human platelets [2], the IC50 is 1.5 µM. For the same molecule, the activity at 20 µM with washed human platelets [2] (setting [3]) was 5 ± 1.7%; with washed human platelets [2] (setting [4]) it was 10.2 ± 4.1%. For the same molecule, the RhoA-GTP formation result in the experiment on RhoA was “inhibited RhoA-GTP formation”. Moreover, the “LARG binding to RhoA” value at RhoA-LARG interaction is on record as “inhibit RhoA-LARG interaction”.
In the case of `O=C(NNc1ccnc2cc(Cl)ccc12)c1ccc(Cl)c(Cl)c1` [UC-177619], the “reversibility of inhibitory effect after wash-out” value with washed human platelets [1] is listed as “entirely reversible”. Moreover, the IC50 with washed human platelets [2] was 0.82 µM. For the same molecule, the activity at 20 µM in the experiment on washed human platelets [2] (setting [3]) came out at 9.3 ± 3.5%; in the experiment on washed human platelets [2] (setting [4]), 12 ± 2.1%. In addition, the “activity in collagen-induced platelet aggregation (SAR statement)” value with washed human platelets [2] (relative to the quinoline analogs) is reported as “slightly better potency”. Moreover, the RhoA-GTP formation result in the experiment on RhoA was “inhibited RhoA-GTP formation”. At RhoA-LARG interaction, the “LARG binding to RhoA” value was “inhibit RhoA-LARG interaction”.
With `O=C(NNc1ccnc2ccccc12)c1cc2ccccc2[nH]1` [UC-177626], the IC50 in the experiment with washed human platelets [2] was greater than 20 µM. Further, the activity at 20 µM in the experiment on washed human platelets [2] (setting [3]) worked out at 86 ± 14.4%; in the experiment on washed human platelets [2] (setting [4]), 87.6 ± 19.4%. The “LARG binding to RhoA” value at RhoA-LARG interaction is given as “showed no effects”.
